{"source": "patent US8088422B2", "about": "“Purified pyrroloquinoline quinone fortified food” (Shanghai Medical Life Science Research Center, Ltd., Co., priority 2008, dated 2012)", "key": {"[1]": {"tested_on": "bacteria in non-pasteurized cow milk", "experiment": "OD600 of PQQ fortified non-pasteurized cow milk (FIG. 2)", "assay_type": "cell-based", "details": "PQQ 0, 0.1, 1, 10 mg/L, after 6 and 9 hour mixing at 37 degree C, then LB culture 24 hours", "method": "In one embodiment of the present invention, the inhibition effect of purified PQQ to the growth of bacterial is utilized to preserve food products. […] The samples were prepared with purified PQQ concentration level of 0, 0.1, 1, and 10 mg/L. Next, the samples were shaken at 37 degree C. for 3, 6, and 9 hours, and then saved in a refrigerator under 4 degree C. On the next day, liquid culture media LB was added into the samples, followed by the samples cultured in shake flask for the next 24 hours and ready for OD600 test.\nFIG. 2 presents the OD600 value as a function of purified PQQ concentration measured from the samples shake flask for 3, 6, and 9 hours."}, "[2]": {"experiment": "Solubility of PQQ in water solution", "assay_type": "physicochemical", "details": "20 °C, aqueous buffer; 20-25 degree C., pH 7.0 water solution"}, "[3]": {"tested_on": "Ampicillin resistant (AmpR) E. coli", "experiment": "OD600 measurement of bacterial growth in LB media with PQQ, Ampicillin resistant E. coli", "assay_type": "cell-based", "details": "for OD600: AmpR, LB media, 37 degree C", "method": "(§1) In one experiment, Top 10 E. coli and Ampicillin resistant (AmpR) E. coli are selected as bacterial samples. These bacterial samples are cultured separately in LB media in a number of tubes with various purified PQQ concentrations. LB media is prepared as following: Ten gram Bacto-tryptone, 5 g yeast extract and 10 g NaCl are added to 800 ml distilled H2O. The pH of the solution is adjusted to 7.5 with NaOH, and the final volume is adjusted to 1 L with distilled H2O. The LB media is autoclaved and filtered to be sterilized. The PQQ concentration range is prepared between 0 to 100 mg/Liter of LB media in the number of the tubes. The bacterial samples are inoculated into the tubes to the amount of 1×10^5/tube, incubated in 37 degree C. on shaking bench for designated time according to the following experiment designs. It is known that Ampicillin has no effect to the growth of Ampicillin resistant E. coli but can inhibit other bacteria growth. Therefore, the data from the Ampicillin experiment are focused on AmpR E. coli growth. While in the case of Top10 E. coli, other types of bacteria may grow in the culture as well.\n(§2) Table 1 and FIG. 1 show OD600 value of samples from Top10 E. coli and Ampicillin resistant E. coli cultured at 6, 8, and 9.5 hours. OD600 is a measurement of the optical density at 600 nm wavelength light of a liquid media. The optical density is related to the amount of particle scattering of light. In this case, a high optical density indicates a large number of bacteria in the cultural sample, and OD600 datas are used in this invention disclosure as indication of numbers of bacteria in the liquid media, which is a standard method to monitor microorganism growth. The OD600 of cultured microorganism in liquid media is measured by photometer, using blank media as blank reference. To convert OD600 to the number of microorganism such as E. coli in the culture media, the converting formula is 1 OD=3.8×10^8. OD600 is a well known technique of monitoring bacterial growth to those of skilled in the art and so is not discussed further here."}, "Isoelectric point of PQQ": {"experiment": "Isoelectric point of PQQ", "assay_type": "physicochemical"}, "Top10 E. coli": {"tested_on": "Top10 E. coli", "experiment": "OD600 measurement of bacterial growth in LB media with PQQ, Top10 E. coli", "assay_type": "cell-based", "details": "37 degree C", "method": "as §1, §2"}, "DNA": {"tested_on": "DNA", "details": "10 μM PQQ (3.3 mg/L), dependent on presence of NADH and Cu (II); cited from earlier work"}}, "data": [{"smiles": "O=C(O)c1cc(C(=O)O)c2c(n1)C(=O)C(=O)c1cc(C(=O)O)[nH]c1-2", "note": "[PQQ, Pyrroloquinoline quinone]", "values": [{"measurement": "amount of bacteria (OD600, FIG. 2)", "setting": "[1]", "value": "the amount of bacteria decreases as the purified PQQ concentration increases"}, {"measurement": "solubility", "setting": "[2]", "value": "1000 to 2000", "unit": "µg/mL"}, {"measurement": "number of E. coli in AmpR sample (general trend, FIG. 1 and table 1)", "setting": "[3]; PQQ 0 to 100 mg/Liter of LB media, 6, 8, 9.5 hours", "value": "decreases as the concentration of purified PQQ increases"}, {"measurement": "OD600", "setting": "[3]; PQQ 0.1 mg/L, 6 Hours", "value": 0.143}, {"measurement": "OD600", "setting": "[3]; PQQ 0.1 mg/L, 8 Hours", "value": 0.331}, {"measurement": "OD600", "setting": "[3]; PQQ 0.1 mg/L, 9.5 Hours", "value": 0.401}, {"measurement": "OD600", "setting": "[3]; PQQ 1 mg/L, 6 Hours", "value": 0.145}, {"measurement": "OD600", "setting": "[3]; PQQ 1 mg/L, 8 Hours", "value": 0.335}, {"measurement": "OD600", "setting": "[3]; PQQ 1 mg/L, 9.5 Hours", "value": 0.408}, {"measurement": "OD600", "setting": "[3]; PQQ 25 mg/L, 6 Hours", "value": 0.087}, {"measurement": "OD600", "setting": "[3]; PQQ 25 mg/L, 8 Hours", "value": 0.268}, {"measurement": "OD600", "setting": "[3]; PQQ 25 mg/L, 9.5 Hours", "value": 0.356}, {"measurement": "OD600", "setting": "[3]; PQQ 50 mg/L, 6 Hours", "value": 0.052}, {"measurement": "OD600", "setting": "[3]; PQQ 50 mg/L, 8 Hours", "value": 0.169}, {"measurement": "OD600", "setting": "[3]; PQQ 50 mg/L, 9.5 Hours", "value": 0.298}, {"measurement": "OD600", "setting": "[3]; PQQ 75 mg/L, 6 Hours", "value": 0.04}, {"measurement": "OD600", "setting": "[3]; PQQ 75 mg/L, 8 Hours", "value": 0.122}, {"measurement": "OD600", "setting": "[3]; PQQ 75 mg/L, 9.5 Hours", "value": 0.239}, {"measurement": "OD600", "setting": "[3]; PQQ 100 mg/L, 6 Hours", "value": 0.03}, {"measurement": "OD600", "setting": "[3]; PQQ 100 mg/L, 8 Hours", "value": 0.088}, {"measurement": "OD600", "setting": "[3]; PQQ 100 mg/L, 9.5 Hours", "value": 0.192}, {"measurement": "isoelectric point", "setting": "Isoelectric point of PQQ", "value": 2.75, "unit": "pH"}, {"measurement": "OD600", "setting": "Top10 E. coli; PQQ 0.1 mg/L, 6 Hours", "value": 0.303}, {"measurement": "OD600", "setting": "Top10 E. coli; PQQ 0.1 mg/L, 8 Hours", "value": 0.416}, {"measurement": "OD600", "setting": "Top10 E. coli; PQQ 0.1 mg/L, 9.5 Hours", "value": 0.451}, {"measurement": "OD600", "setting": "Top10 E. coli; PQQ 1 mg/L, 6 Hours", "value": 0.293}, {"measurement": "OD600", "setting": "Top10 E. coli; PQQ 1 mg/L, 8 Hours", "value": 0.445}, {"measurement": "OD600", "setting": "Top10 E. coli; PQQ 1 mg/L, 9.5 Hours", "value": 0.452}, {"measurement": "OD600", "setting": "Top10 E. coli; PQQ 25 mg/L, 6 Hours", "value": 0.251}, {"measurement": "OD600", "setting": "Top10 E. coli; PQQ 25 mg/L, 8 Hours", "value": 0.433}, {"measurement": "OD600", "setting": "Top10 E. coli; PQQ 25 mg/L, 9.5 Hours", "value": 0.472}, {"measurement": "OD600", "setting": "Top10 E. coli; PQQ 50 mg/L, 6 Hours", "value": 0.208}, {"measurement": "OD600", "setting": "Top10 E. coli; PQQ 50 mg/L, 8 Hours", "value": 0.413}, {"measurement": "OD600", "setting": "Top10 E. coli; PQQ 50 mg/L, 9.5 Hours", "value": 0.457}, {"measurement": "OD600", "setting": "Top10 E. coli; PQQ 75 mg/L, 6 Hours", "value": 0.165}, {"measurement": "OD600", "setting": "Top10 E. coli; PQQ 75 mg/L, 8 Hours", "value": 0.386}, {"measurement": "OD600", "setting": "Top10 E. coli; PQQ 75 mg/L, 9.5 Hours", "value": 0.446}, {"measurement": "OD600", "setting": "Top10 E. coli; PQQ 100 mg/L, 6 Hours", "value": 0.163}, {"measurement": "OD600", "setting": "Top10 E. coli; PQQ 100 mg/L, 8 Hours", "value": 0.378}, {"measurement": "OD600", "setting": "Top10 E. coli; PQQ 100 mg/L, 9.5 Hours", "value": 0.431}, {"measurement": "DNA cleavage", "setting": "DNA", "value": "induce DNA cleavage at thymine and cytosine residue sites"}]}]}
